Entries after “also recorded” stand apart in the source; their conditions may differ. Peptide text beside a SMILES is read from it. * marks the point of attachment. Cbz = O=C(OCc1ccccc1)*
Legend:
[1] = tested on: PC12 cells that express mutant G93A SOD1 as a YFP fusion protein; assay: high throughput cytotoxicity protection assay; details: for Activity in Protection Assay: neuroleptic agent screening; for protection of cell viability from MG132: 100 nM MG132 co-treatment; for EC50: Rattus norvegicus, PC-12, read-out: Protection ED50; for Protection Efficacy Conc.: concentration at which the % viability is given
Description: This idea was tested by examining the sensitivity of PC12 cells to SOD1 aggregates in the presence and absence of proteasome inhibitor MG132. PC12 cells expressing no SOD1, wild type SOD1, G85R SOD1 or G93A SOD1 were grown with or without MG132 (FIG. 1). […] The ability of protein aggregates to induce cell death was examined by treating G93A SOD1-expressing cells with MG132 for 24 h, removing the MG132 by washing and assaying cell viability after another 24 h.
PC12 cells expressing G93A SOD1 were treated with 100 nM MG132 with or without co-treatment with geldanamycin or radicicol.

[2] = tested on: PC12 cells expressing G85R SOD1; assay: mutant SOD1 direct protein aggregation assay; format: cell-based
Description: 4) Compounds could act directly on SOD1 in a manner that prevents mutant SOD1 aggregation. These possibilities were tested using an assay that directly measures protein aggregation. In addition, unlike the high throughput cytotoxicity protection assay, the protein aggregation assay is based on G85R SOD1; this broadens the scope of the screening strategy, and should eliminate compounds with highly specific activity (i.e., G93A SOD1 limited) against protein aggregation.
The identification of a positive control is a crucial step in assay development. Thus, PC12 cells expressing G85R or G93A mutant SOD1 were treated with MG132 to induce protein aggregation, and then co-treated with candidate chemical suppressors of protein aggregation.
To allow this assay to be used in a high-throughput manner, a Cellomics Arrayscan® high content microscopy system was used for screening and quantification. […] Because the most robust high content assays measure events on a per cell basis, it was necessary to select a fluorescent stain that marks whole cells to be used with a compatible stain that marks intracellular structures.

[3] = tested on: PC12 cells expressing G93A mutant SOD1; assay: MG132-induced SOD1 protein aggregation; format: cell-based
Description: (§1) In PC12 cells that express wild-type SOD1, SOD1 was diffusely localized throughout the cell (Matsumoto et al. J. Cell. Biol 2005, 171(1), 75-85). […] Therefore, these effects are likely to be due to MG132-induced proteasome inhibition, and not due to an off-target effect of MG132.
The identification of a positive control is a crucial step in assay development. Thus, PC12 cells expressing G85R or G93A mutant SOD1 were treated with MG132 to induce protein aggregation, and then co-treated with candidate chemical suppressors of protein aggregation. […] Both compounds induce heat shock transcription factor HSF-1, which in turn induces the heat shock response (FIG. 4). Treatment with radicicol reduced the proportion of cells with aggregates from 75% to 25%, a sufficient difference to allow visual scoring for compounds with efficacy equal to or greater than radicicol.

cellular toxicity = format: cell-based
Excerpt: Butaclamol is a diasteriomer and the two different isomeric forms can be physically separated.

[4] = tested on: PC12 cells expressing no SOD1, wild type SOD1 and G85R SOD1; assay: sensitivity of PC12 cells to proteasome inhibitor (cell viability, calcein-AM); format: cell-based; details: Rattus norvegicus, PC-12
[5] = tested on: PC12 cells expressing G93A SOD1; assay: as above; format: cell-based
Description: FIG. 1. Proteasome inhibition is selectively toxic to PC12 cells expressing mutant G93A SOD1. Cell survival was determined using the viability stain calcein-AM.

[6] = tested on: PC12 cells expressing wild-type SOD1; assay: MG132-induced SOD1 protein aggregation; format: cell-based; details: cells treated with MG132
Excerpt: as §1

[7] = tested on: G93A SOD1 transgenic mice; assay: transgenic G93A SOD1 ALS mouse model (open field, survival, neuropathology); format: in vivo; details: for Average life span: untreated 125.1±3.8
Excerpt: Subjects. […] The development of transgenic mice expressing G93A human SOD1 as a mouse model for the human disease has been regarded as a major breakthrough for development of ALS therapeutics. G93A SOD1 transgenic mice develop progressive hind limb weakness, muscle wasting, and neuropathological sequelae similar to those observed in patients with both sporadic and familial ALS. […] In addition, motor performance deteriorates as the disease progresses. The G93A SOD1 mouse model has played a prominent role in studying disease progression and especially for testing potential therapeutic agents, the latter in part because these animals have a shortened life span of approximately 126 days. In the present study, G93A SOD1 mice and littermate controls are bred from existing colonies at the Bedford VA Medical Hospital. The male G93A SOD1 mice are mated with B6SJL females and the offspring are genotyped by PCR using tail DNA. The number of SOD1 transgenes are assessed by PCR to ensure that transgene copy number remains constant. Mice are housed in micro-isolator cages in complete barrier facilities, and all studies are performed in these facilities. A 12 hour light-dark cycle is maintained and animals are given free access to food and water. Control and transgenic mice of the same age (±2 days) and from the same ‘f generation will be selected from multiple litters to form experimental cohorts (n=20 per group). Standardized criteria for age and parentage are used for placing individual mice into experimental groups/cohorts. Wild type mice are used for initial toxicity, tolerability, and pharmacokinetic studies and ALS mice are used for one-month tolerability studies.
Tolerability, Dosing, and Pharmacokinetics. The tolerable dose range and LD50 for butaclamol was determined in wild type mice by increasing the dose b.i.d. one-fold each injection. The route of administration was via i.p. administration, which was previously reported to produce robust effects in behavioral pharmacology studies, and starting dose range was guided by these prior studies (Lippmann et al., Life Sciences 16, 213, (1975); Humber et al., Mol. Pharmacol. 11, 833, (1975); Voith and Herr, Psychopharmacologia 42, 11, (1975)). One goal was to select a range of doses for the efficacy study starting ten fold below the maximum tolerated dose. Initial pharmacokinetic (pK) studies were conducted by giving animals a single dose, sacrificing them after 30 min, 1 h, 2 h, 4 h, 6 h, and 12 h, and dissecting brains and spinal cords and determining drug concentration in the target tissue. Drug steady-state level was determined in animals that had been dosed for 1 week prior to sacrifice. The range of dosing levels of 0.01, 0.1, and 1 mg/kg once a day were administered throughout the lives of the G93A mice.
Behavioral pharmacology. Behavioral testing for the transgenic G93A SOD1 mice were performed during the light phase of the diurnal cycle since these mice are sufficiently active during that time. Measurements were made for 30 minutes after 10 minutes of acclimation to the box (Opto-Varimex Unit, Columbus Instruments, Columbus, Ohio, USA). Counts of horizontal and vertical motion activity were monitored and quantitative analysis of locomotor activity (resting and ambulatory times), were assessed. The open field box was cleaned before testing each mouse. Each 30 minutes of testing was analyzed as three periods of 10 minute intervals to study the influence of novelty and measured behavior. Mice were coded and investigators were blinded to the genotype and analysis. Testing started on week 4 and performed every other week until the mice could no longer participate.
Efficacy studies. Efficacy was measured using endpoints that clearly indicate neuroprotective function. These include amelioration of degenerative changes in the spinal cord, improved motor function, and prolonged survival. […]

G93A mice = assay: climbing assay for extrapyramidal effects; format: in vivo, mouse; details: 0.01, 0.1, 1 mg/kg
Excerpt: A climbing assay was used to test for extrapyramidal effects.

[8] = tested on: healthy volunteers and chronic schizophrenic patients; details: cited from earlier work
[9] = tested on: [3H] dopamine binding sites; details: cited from earlier work
[10] = tested on: [3H] haloperidol binding sites; details: cited from earlier work
[11] = high doses; cited from earlier work

## CN1CCN(CCCN2c3ccccc3Sc3ccc(C(F)(F)F)cc32)CC1 [Trifluoperazine]
[1]
  Activity in Protection Assay: Inactive

## C[C@@H]1C[C@H]2O[C@@H]2/C=C\C=C\C(=O)Cc2c(Cl)c(O)cc(O)c2C(=O)O1 [Radicicol]
[2]
  Aggregation: Moderate
[2]; G85R or G93A mutant SOD1 cells, co-treated with MG132, 75% without radicicol
  proportion of cells with aggregates: 25%
[2]; G93A SOD1 or G85R SOD1 cells, MG132 co-treatment
  suppression of MG132-induced mutant SOD1 aggregation: decreases mutant SOD1 aggregation
[3]; 100 nM MG132 co-treatment
  formation of protein aggregates: reduced formation of protein aggregates
Cellular toxicity
  IC50: ~30000 nM
[1]
  protection of cell viability from MG132: protects
  EC50: ~530 nM
  Protection Efficacy Conc.: 0.7 µM
[1]; listed as radicicol
  protection of cell viability from MG132: increased cell viability in a dose-dependent manner
[1]; at the concentration given
  Protection Efficacy % Viability: 80%

## O=c1[nH]c2ccccc2n1C1CCN(CCCC(c2ccc(F)cc2)c2ccc(F)cc2)CC1 [Pimozide]
[1]
  Activity in Protection Assay: Inactive

## Cc1nc2n(c(=O)c1CCN1CCC(c3noc4cc(F)ccc34)CC1)CCCC2 [Risperidone]
[1]
  Activity in Protection Assay: Inactive

## CN(C)CCCN1c2ccccc2Sc2ccc(Cl)cc21 [Chlorpromazine]
[1]
  Activity in Protection Assay: Inactive

## CC(C)C[C@@H](C=O)NC(=O)[C@H](CC(C)C)NC(=O)[C@H](CC(C)C)NC(=O)OCc1ccccc1 [MG132] (Cbz-Leu-Leu-Leu-aldehyde)
[2]; G85R SOD1 cells treated with MG132
  cells containing protein aggregates: up to 75%
[3]; G93A SOD1 cells following treatment with MG132
  cells with protein aggregates: ~75%
[4]
  IC50: ~400 nM
[5]; 100 nM, 24 hr, any of the cell lines
  toxicity at 24 hr: no toxicity
[5]; 100 nM, 48 hours
  toxicity after 48 hours: selectively toxic to the G93A SOD1 cell line
[5]; G93A SOD1 cells vs no SOD1, wild type, G85R
  fold more sensitive than the other PC12 lines: approximately 5 fold
[5]; Rattus norvegicus, PC-12, read-out: IC50 (cell viability)
  IC50: ~75 nM
[6]
  protein aggregation in wild-type SOD1 cells: no aggregation was observed

## O=C(CCCN1CCC(O)(c2ccc(Cl)cc2)CC1)c1ccc(F)cc1 [Haloperidol]
[1]
  Activity in Protection Assay: Inactive

## CC(C)(C)[C@]1(O)CCN2C[C@H]3c4ccccc4CCc4cccc(c43)[C@@H]2C1 [Butaclamol]
[2]
  Aggregation: Inactive
  activity in the aggregation assay: inactive
[7]; 0.1 mg/kg, 120 days, WT 3.18±0.24×10^6, untreated 2.25±0.49×10^6, P<0.01
  gross lumbar spinal cord (atrophy): 2.97±0.31×10^6 μm^3
[7]; 0.1 mg/kg, 120 days, WT 7.29±0.41×10^5, untreated 5.28±0.63×10^5, P<0.05
  ventral horn of the lumbar spinal cord (atrophy): 6.55±0.37×10^5 μm
[7]; 0.1 mg/kg, 120 days, WT 98.1±12.9, untreated 22.4±15.8, P<0.01
  ventral horn neuronal count: 57.3±18.2
[7]; butaclamol treatment
  reactive astrogliosis (GFAP expression, lumbar spinal cord): ameliorated; also recorded: markedly attenuates reactive astrogliosis
[7]; high dose 1 mg/kg, throughout treatment, vs wild type or untreated G93A
  open field motor activity: significantly reduced motor activity outcome measures
[7]; high dose (1 mg/kg once a day, i.p.)
  Average life span: 123.7 ± 6.2 days
[7]; low dose 0.01 mg/kg, 6 week to 12-13 week
  open field behavior (distance traveled, resting time, ambulatory count, ambulatory time): no significant effect
[7]; low dose (0.01 mg/kg once a day, i.p.)
  Average life span: 129.3 ± 4.1 days
[7]; medium dose 0.1 mg/kg, 6 weeks to 12-13 weeks, 0.1 mg/kg
  open field behavior: not significantly different from wild type mice
[7]; medium dose (0.1 mg/kg once a day, i.p.)
  Average life span: 141.0 ± 5.3 days
[7]; medium dose (0.1 mg/kg)
  extended survival as compared with untreated G93A mice: 12.7%
G93A mice
  extrapyramidal effects: No significant extrapyramidal effects
Cellular toxicity
  IC50: < 25000 nM
[1]
  activity in the protection assay: showed activity
  EC50: ~840 nM
  Protection Efficacy Conc.: 15 µM
  Activity in Protection Assay: Active
[1]; rat
  Protection Efficacy % Viability: 80%
[8]; healthy volunteers, single and repeated doses up to 32 mg/day
  limiting effects in Phase I: sedation and extrapyramidal effects
[8]; human, in vivo
  dose producing extrapyramidal effects in patients: ≥ 10 mg/day
[8]; long-term, 50 mg/day
  neuroleptic activity in chronic schizophrenic patients: active neuroleptic agent

## OCCN1CCN(CCCN2c3ccccc3Sc3ccc(Cl)cc32)CC1 [Perphenazine]
[1]
  Activity in Protection Assay: Inactive

## CC(C)C[C@H](NC(=O)[C@H](Cc1ccccc1)NC(=O)c1cnccn1)B(O)O [bortezomib]
[5]; compared with MG132
  sensitivity of PC12 cells to proteasome inhibition: Qualitatively similar results

## CN(C)CC/C=C1/c2ccccc2Sc2ccc(Cl)cc21 [Chlorprothixene]
[1]
  Activity in Protection Assay: Inactive

## CN1CCN(C2=Nc3cc(Cl)ccc3Nc3ccccc32)CC1 [Clozapine]
[1]
  Activity in Protection Assay: Inactive

## CN1CCN(C2=Nc3ccccc3Oc3ccc(Cl)cc32)CC1 [Loxapine]
[1]
  Activity in Protection Assay: Inactive

## (+) butaclamol
[9]
  times more potent than the (−) isomer: about one hundred
[1]
  activity in the protection assay: showed activity
[10]
  times more potent than the (−) isomer: one thousand
[11]
  effect on epinephrine-induced mortality: antagonized epinephrine-induced mortality
